Measured values taken from patent publication US20220030868A1, “FUNGICIDAL HALOMETHYL KETONES AND HYDRATES” (FMC CORPORATION, priority 2018, published 2022).

What was measured:
[1] = system: Phakopsora pachyrhizi; assay: Test A: test suspension sprayed on soybean seedlings one day before inoculation with Phakopsora pachyrhizi spores (Asian soybean rust), visual disease rating; assay type: in vivo; settings: 100 = 100% disease control, 0 = no control; for pest or weed control at 10 ppm: Phakopsora pachyrhizi
Method in brief: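 Soybean seedlings were sprayed to run-off with test suspension (acetone 3% of volume, acetone/water 50/50, 250 ppm PEG400) and inoculated with rust spores one day later. Incubation: 24 h saturated atmosphere at 22° C, then 8 days growth chamber at 22° C; scores 0–100 relative to untreated controls.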

[2] = system: Puccinia recondita f. sp. tritici; assay: Test B: test suspension sprayed on wheat seedlings one day before inoculation with Puccinia recondita f. sp. tritici spores (wheat leaf rust), disease rating; assay type: in vivo; settings: 100 = 100% disease control, 0 = no control
Method in brief: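 Wheat seedlings were sprayed to run-off with compound suspended in 50/50 acetone/water containing 250 ppm PEG400, then inoculated with P. recondita f. sp. tritici spores the next day. Plants were held 24 h in saturated air at 20 °C, then 6 days in a growth chamber at 20 °C. Disease control was rated 0–100% relative to controls, with some entries run at 50 or 10 ppm.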

Row | Compound | Test A rating (disease control) ([1]; 10 ppm test suspension) [%] | Test B rating (disease control) ([2]; 10 ppm test suspension) [%] | further results
1 | O=C(NCc1ccc(OCC2(C(F)(F)F)OCCO2)cc1)C1CC1 [compound 176] | 0 | 0 | 
2 | CCO/C(=C\Oc1ccc(Cn2ccc(C(=O)O)n2)cc1)C(F)(F)F [compound 299] | 100 | 0 | 
3 | CCO/C(=C\Oc1ccc(Cc2ncc(C(=O)NCC(F)F)o2)cc1)C(F)(F)F [compound 255] | 89 | 0 | 
4 | CS(=O)(=O)c1nccc(Cc2ccc(OCC3(C(F)(F)F)OCCO3)cc2)n1 [compound 282] |  |  | Test A rating (disease control) ([1]; 50 ppm test suspension): 0%; Test B rating (disease control) ([2]; 50 ppm test suspension): 0%
5 | CCO/C(=C\Oc1ccc(CO)cc1)C(F)(F)F [compound 195] | 0 | 0 | 
6 | COC(=O)NN=Cc1ccc(OCC2(C(F)(F)F)OCCO2)cc1 [compound 27] | 0 | 0 | 
7 | CCO/C(=C\Oc1ccc(Cn2ccc(C(=O)OC(C)C)n2)cc1)C(F)(F)F [compound 327] | 100 | 0 | 
8 | CCOC(=O)c1cnn(Cc2ccc(OCC3(C(F)(F)F)OCCO3)c(F)c2)c1 [Compound 263, ethyl 1-[[3-fluoro-4-[[2-(trifluoromethyl)-1,3-dioxolan-2-yl]methoxy]phenyl]methyl]-1H-pyrazole-4-carboxylate] |  |  | pest or weed control at 10 ppm ([1]; 10 ppm test suspension): 100%; pest or weed control at 10 ppm ([2]; 10 ppm test suspension): 0%
9 | CCO/C(=C\Oc1ccc(Cn2ccc(C)n2)cc1)C(F)(F)F [compound 158] | 0 | 0 | 
10 | COC(C)C(=O)NCc1ccc(OCC2(C(F)(F)F)OCCO2)cc1 (centres unmarked) [compound 214] | 0 | 0 | 
11 | CCOC(=O)c1cnn(Cc2ccc(OC(C)C(O)(O)C(F)(F)F)cc2)c1 (centres unmarked) [Compound 5] | 0 | 0 | 
12 | CCOC(=COc1ccc(CN2CCC(C(=O)OC)C2)cc1)C(F)(F)F (mixture of isomers) [compound 310] | 100 | 0 | 
13 | O=C(NCc1ccc(OCC2(C(F)(F)F)OCCO2)cc1)c1cccc(C(F)(F)F)c1 [compound 179] | 0 | 0 | 
14 | CC(C)OC(=O)c1cnn(Cc2ccc(OCC3(C(F)(F)F)OCCO3)cc2)c1 [compound 14] | 100 | 0 | 
15 | O=[N+]([O-])c1cccc(OCC2(C(F)(F)F)OCCO2)c1 [compound 165] |  |  | pest or weed control at 10 ppm ([1]; 10 ppm test suspension): 0%; pest or weed control at 10 ppm ([2]; 10 ppm test suspension): 0%
16 | CCOC(=O)c1cnn(Cc2ccc(O/C=C(\OC)C(F)(F)F)cc2)c1 [compound 53] |  |  | Test A rating (disease control) ([1]; 50 ppm test suspension): 100%; Test B rating (disease control) ([2]; 50 ppm test suspension): 67%
17 | CCO/C(=C\Oc1ccc(C(N)=O)cc1)C(F)(F)F [compound 99] | 0 | 80 | 
18 | CCO/C(=C\Oc1ccc(CN2CCC(OC)CC2)cc1)C(F)(F)F [compound 312] | 0 | 0 | 
19 | O=C(NCC1CC1)c1cnc(Cc2ccc(OCC(O)(O)C(F)(F)F)cc2)o1 [Compound 247] | 13 | 0 | 
20 | CCO/C(=C\Oc1cccc(Cn2cc(C(=O)OCCOC)cn2)c1)C(F)(F)F [compound 340] | 100 | 0 | 
21 | CCOC(=O)c1ccc(O/C=C(\OCC)C(F)(F)F)cc1 [compound 95] | 0 | 0 | 
22 | CCOC(=O)NCc1ccc(O/C=C(\OCC)C(F)(F)F)cc1 [compound 111] | 0 | 0 | 

Row | Compound | Test A rating (disease control) ([1]; 10 ppm test suspension) [%] | Test B rating (disease control) ([2]; 10 ppm test suspension) [%] | further results
23 | CCOC(=O)c1cn(Cc2ccc(O/C=C(\OCC)C(F)(F)F)cc2)cn1 [compound 153] | 100 | 0 | 
24 | CCO/C(=C\Oc1ccc(Cn2cnc(C(=O)OC)n2)cc1)C(F)(F)F [Compound 123] | 98 | 0 | 
25 | O=C(OCc1cccnc1)c1cnn(Cc2ccc(OCC3(C(F)(F)F)OCCO3)cc2)c1 [compound 200] | 100 | 0 | 
26 | CCO/C(=C\Oc1ccc(Cn2nccc2C(=O)OC(C)(C)C)cc1)C(F)(F)F [compound 252] | 0 | 0 | 
27 | O=C(OCc1ccncc1)c1cnn(Cc2ccc(OCC3(C(F)(F)F)OCCO3)cc2)c1 [compound 201] | 100 | 0 | 
28 | N#CCNC(=O)c1cnn(Cc2ccc(OCC3(C(F)(F)F)OCCO3)cc2)c1 [compound 164] | 31 | 0 | 
29 | CCOC(=O)C=CCOc1ccc(OCC(O)(O)C(F)(F)F)cc1 [Compound 97] |  |  | Test A rating (disease control) ([1]; 50 ppm test suspension): 94%; Test B rating (disease control) ([2]; 50 ppm test suspension): 0%
30 | CCCOC(=O)c1ccc(O/C=C(\OCC)C(F)(F)F)cc1 [compound 94] | 0 | 0 | 
31 | CCO/C(=C\Oc1ccc(C(=O)NC(C)C)cc1)C(F)(F)F [compound 101] | 0 | 0 | 
32 | CCO/C(=C\Oc1ccc(Cn2cc(C(=O)O)cn2)cc1)C(F)(F)F [compound 116] | 100 | 0 | 
33 | CCOC(=O)c1cnn(Cc2ccc(OCC(O)(NO)C(F)(F)F)cc2)c1 (centres unmarked) [Compound 10] | 100 | 86 | 
34 | CC(C)CS(=O)(=O)NCc1ccc(OCC2(C(F)(F)F)OCCO2)cc1 [compound 76] | 0 | 0 | 
35 | CCOC(=O)c1cnn(Cc2ccc(OCC3(C(F)(F)F)OC(=O)[C@@H](C)O3)cc2)c1 (some centres unmarked) [Compound 187] | 93 | 74 | 
36 | CCO/C(=C\Oc1ccc(CN)cc1)C(F)(F)F [compound 110] |  |  | Test A rating (disease control) ([1]; 50 ppm test suspension): 79%; Test B rating (disease control) ([2]; 50 ppm test suspension): 0%
37 | CCNC(=O)c1cnn(Cc2cccc(C/C=C(\OCC)C(F)(F)F)c2)c1 [compound 343] | 0 | 0 | 
38 | CCO/C(=C\Oc1ccc(Cn2ccnc2)cc1)C(F)(F)F [compound 156] | 0 | 0 | 
39 | CCOC(=O)C1=NOC(Cc2ccc(OC=C(OCC)C(F)(F)F)cc2)C1 (mixture of isomers) [compound 287] |  |  | Test A rating (disease control) ([1]; 50 ppm test suspension): 77%; Test B rating (disease control) ([2]; 50 ppm test suspension): 0%
40 | C=CCOC(=O)c1cnn(Cc2ccc(OCC(O)(O)C(F)(F)F)cc2)c1 [Compound 43] | 96 | 60 | 
41 | CCO/C(=C\Oc1ccc(CN2CCC(C(=O)OC)CC2)cc1)C(F)(F)F [compound 309] | 100 | 0 | 
42 | O=C(NCC(F)(F)F)c1cnc(Cc2ccc(OCC3(C(F)(F)F)OCCO3)cc2)s1 [Compound 275] | 0 | 0 | 
43 | CSc1nccc(Cc2ccc(OCC3(C(F)(F)F)OCCO3)cc2)n1 [compound 281] |  |  | Test A rating (disease control) ([1]; 50 ppm test suspension): 95%; Test B rating (disease control) ([2]; 50 ppm test suspension): 98%
